Data on one molecule can be found in ChEMBL document CHEMBL4145688, “Potent and Orally Bioavailable Inverse Agonists of RORγt Resulting from Structure-Based Design” (J Med Chem, 2018).

This assay relates to Homo sapiens. Kind of assay: Reduction in psoriasis-severity index in psoriasis patient dosed orally during phase 2a study. It counts as functional. Further details: scale not given: the % may be the effect or the level left.

Take `CCS(=O)(=O)c1ccc(CNC(=O)c2cnc3c(c2)CN(C[C@H]2CC[C@H](C(F)(F)F)CC2)[C@H]3C(C)C)nc1`: the Activity was determined as 24%.
